molecular target: human 5-HT2C(VSV) (Homo sapiens, UniProt P28335, I156V/I160V/N158S); assay: cell-based
Sequence (P28335 33-458 I156V/N158S/I160V limits assumed): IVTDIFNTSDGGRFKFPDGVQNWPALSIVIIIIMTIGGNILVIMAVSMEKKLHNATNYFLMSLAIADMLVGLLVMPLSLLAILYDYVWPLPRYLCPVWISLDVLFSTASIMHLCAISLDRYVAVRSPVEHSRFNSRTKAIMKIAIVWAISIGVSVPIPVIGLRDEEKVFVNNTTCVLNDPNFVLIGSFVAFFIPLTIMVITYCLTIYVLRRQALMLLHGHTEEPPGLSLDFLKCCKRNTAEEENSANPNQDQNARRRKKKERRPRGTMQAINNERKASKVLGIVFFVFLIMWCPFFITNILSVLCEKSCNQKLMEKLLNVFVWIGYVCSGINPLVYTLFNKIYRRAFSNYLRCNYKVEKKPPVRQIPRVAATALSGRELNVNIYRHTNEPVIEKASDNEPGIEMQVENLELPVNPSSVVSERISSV

`CN(C)CCc1cn(C)c2ccc(F)c(OCCc3ccccc3)c12` [18-2, 2-(5-fluoro-1-methyl-4-phenethoxy-1H-indol-3-yl)-N,N-dimethylethanamine] and `CNCCc1cn(C)c2ccc(F)c(OCCc3ccccc3)c12` [33-26, 2-(5-fluoro-1-methyl-4-phenethoxy-1H-indol-3-yl)-N-methylethanamine] fall in the same range of EC50: 0.001 to 0.5 µM for the first, 0.001 to 0.5 µM for the second.

Compared with `CNCCc1cn(C)c2ccc(F)c(OCCc3ccccc3Cl)c12` [33-19, 2-(4-(2-chlorophenethoxy)-5-fluoro-1-methyl-1H-indol-3-yl)-N-methylethanamine], `CNCCc1cn(C)c2ccc(F)c(OCC(O)c3ccccc3Cl)c12` (stereo not shown) [33-37, 1-(2-chlorophenyl)-2-(5-fluoro-1-methyl-3-(2-(methylamino)ethyl)-1H-indol-4-yloxy)ethanol] is lower in EC50: 0.5 to 10 µM for the first, 0.001 to 0.5 µM for the second.

First: COc1ccc(C#CCO)c2c1c(CCN(C)C)cn2C [6-11, 3-(3-(2-(dimethylamino)ethyl)-4-methoxy-1-methyl-1H-indol-7-yl)prop-2-yn-1-ol]
Second: COc1ccc(CCCO)c2c1c(CCN(C)C)cn2C [25-4, 3-(3-(2-(dimethylamino)ethyl)-4-methoxy-1-methyl-1H-indol-7-yl)propan-1-ol]
The EC50 of the first is lower: 0.001 to 0.5 µM for the first, 0.5 to 10 µM for the second.

`COc1ccc(-c2ccccc2)c2c1c(CCN(C)C)cn2C` [6-6, 2-(4-methoxy-1-methyl-7-phenyl-1H-indol-3-yl)-N,N-dimethylethanamine] and `COc1ccc(-c2cccnc2)c2c1c(CCN(C)C)cn2C` [6-14, 2-(4-methoxy-1-methyl-7-(pyridin-3-yl)-1H-indol-3-yl)-N,N-dimethylethanamine] fall in the same range of EC50: 0.001 to 0.5 µM for the first, 0.001 to 0.5 µM for the second.

`CN(C)CCc1cn(C)c2ccc(F)c(OCc3cccs3)c12` [1-20a, 2-(5-fluoro-1-methyl-4-(thiophen-2-ylmethoxy)-1H-indol-3-yl)-N,N-dimethylethanamine] and `CNCCc1cn(C)c2ccc(F)c(OCc3ccc(F)cc3)c12` [33-35, 2-(5-fluoro-4-(4-fluorobenzyloxy)-1-methyl-1H-indol-3-yl)-N-methylethanamine] fall in the same range of EC50: 0.001 to 0.5 µM for the first, 0.001 to 0.5 µM for the second.

`CCn1cc(CCN(C)C)c2c(OC)c(CCCN)cc(F)c21` [28-4, 3-(3-(2-(dimethylamino)ethyl)-1-ethyl-7-fluoro-4-methoxy-1H-indol-5-yl)propan-1-amine] and `CCn1cc(CCN(C)C)c2c(OC)c(CCCO)cc(F)c21` [27-3, 3-(3-(2-(dimethylamino)ethyl)-1-ethyl-7-fluoro-4-methoxy-1H-indol-5-yl)propan-1-ol] fall in the same range of EC50: 0.001 to 0.5 µM for the first, 0.001 to 0.5 µM for the second.

Compared with `CCn1cc(C2CCCNC2)c2c(O)cc(F)cc21` (stereo not shown) [38-4, 1-ethyl-6-fluoro-3-(piperidin-3-yl)-1H-indol-4-ol], `CCn1cc(CCN2CCCOCC2)c2c(O)cc(F)cc21` [11-12, 3-(2-(1,4-oxazepan-4-yl)ethyl)-1-ethyl-6-fluoro-1H-indol-4-ol] is higher in EC50: 0.001 to 0.5 µM for the first, 0.5 to 10 µM for the second.

`CCn1cc(CCN(C)C)c2c(Oc3ccccc3)cc(F)cc21` [32-2, 2-(1-ethyl-6-fluoro-4-phenoxy-1H-indol-3-yl)-N,N-dimethylethanamine] and `CCn1cc(CCN(C)C)c2c(OCc3ccc(Cl)cc3)cc(F)cc21` [1-10b, 2-(4-(4-chlorobenzyloxy)-1-ethyl-6-fluoro-1H-indol-3-yl)-N,N-dimethylethanamine] fall in the same range of EC50: 0.5 to 10 µM for the first, 0.5 to 10 µM for the second.

`CCN(CC)C(=O)Cn1cc(CCN)c2c(O)c(F)ccc21` [19-6, 2-(3-(2-aminoethyl)-5-fluoro-4-hydroxy-1H-indol-1-yl)-N,N-diethylacetamide] and `NCCc1cn(CC(N)=O)c2ccc(F)c(O)c12` [19-7, 2-(3-(2-aminoethyl)-5-fluoro-4-hydroxy-1H-indol-1-yl)acetamide] cannot be ordered by EC50: < 10 µM for the first, < 10 µM for the second.

`COc1ccc(F)c2c1c(C(C)CN)cn2C` (stereo not shown) [9-5, 2-(7-fluoro-4-methoxy-1-methyl-1H-indol-3-yl)propan-1-amine] and `CCn1cc(CCNC(C)c2ccccc2)c2c(OC)ccc(F)c21` (stereo not shown) [20-8, 2-(1-ethyl-7-fluoro-4-methoxy-1H-indol-3-yl)-N-(1-phenylethyl)ethanamine] fall in the same range of EC50: 0.001 to 0.5 µM for the first, 0.001 to 0.5 µM for the second.

`CCn1cc(CCNCc2ccccc2)c2c(O)cc(F)cc21` [26-8, 3-(2-(benzylamino)ethyl)-1-ethyl-6-fluoro-1H-indol-4-ol] and `CCn1cc(CCNCc2ccccc2)c2c(OC)cc(F)cc21` [39-4, N-benzyl-2-(1-ethyl-6-fluoro-4-methoxy-1H-indol-3-yl)ethanamine] fall in the same range of EC50: 0.001 to 0.5 µM for the first, 0.001 to 0.5 µM for the second.

`NCCc1cn(CC2CCCCO2)c2ccc(F)c(O)c12` (stereo not shown) [19-3, 3-(2-Aminoethyl)-5-fluoro-1-((tetrahydro-2H-pyran-2-yl)methyl)-1H-indol-4-ol] and `CCCn1cc(CCN)c2c3c(ccc21)OCCO3` [40-6, 2-(7-propyl-3,7-dihydro-2H-[1,4]dioxino[2,3-e]indol-9-yl)ethanamine] cannot be ordered by EC50: 0.001 to 0.5 µM for the first, < 10 µM for the second.

`CNCCc1cn(C)c2ccc(F)c(OCc3ccccc3C(F)(F)F)c12` [33-31, 2-(5-fluoro-1-methyl-4-(2-(trifluoromethyl)benzyloxy)-1H-indol-3-yl)-N-methylethanamine] and `CCOc1c(F)ccc2c1c(CCNCc1ccccc1C(F)(F)F)cn2C` [30-21, 2-(4-ethoxy-5-fluoro-1-methyl-1H-indol-3-yl)-N-(2-(trifluoromethyl)benzyl)ethanamine] fall in the same range of EC50: 0.001 to 0.5 µM for the first, 0.001 to 0.5 µM for the second.

First: CCn1cc(CCNCc2cccc(Cl)c2)c2c(OCc3ccccc3)cc(F)cc21 [31-9, 2-(4-(benzyloxy)-1-ethyl-6-fluoro-1H-indol-3-yl)-N-(3-chlorobenzyl)ethanamine]
Second: CCn1cc(CCN(C)Cc2ccccc2)c2c(OCc3ccccc3)cc(F)cc21 [31-6, N-benzyl-2-(4-(benzyloxy)-1-ethyl-6-fluoro-1H-indol-3-yl)-N-methylethanamine]
The EC50 of the first is higher: 0.5 to 10 µM for the first, 0.001 to 0.5 µM for the second. The second is the more potent here.

`CCn1cc(CCN(C)C)c2c(OCc3ccc(C(F)(F)F)cc3)cc(F)cc21` [1-12b, 2-(1-ethyl-6-fluoro-4-(4-(trifluoromethyl)benzyloxy)-1H-indol-3-yl)-N,N-dimethylethanamine] and `CCn1cc(CCN(C)C)c2c(OCc3cccc(C(F)(F)F)c3)cc(F)cc21` [1-16b, 2-(1-ethyl-6-fluoro-4-(3-(trifluoromethyl)benzyloxy)-1H-indol-3-yl)-N,N-dimethylethanamine] fall in the same range of EC50: 0.5 to 10 µM for the first, 0.5 to 10 µM for the second.

`COc1c(F)ccc2c1c(CCN1CCCC1C(N)=O)cn2C` (stereo not shown) [17-9, 1-(2-(5-fluoro-4-methoxy-1-methyl-1H-indol-3-yl)ethyl)pyrrolidine-2-carboxamide] and `CCOc1c(F)ccc2c1c(CCN1CCCC1CO)cn2C` (stereo not shown) [30-24, (1-(2-(4-ethoxy-5-fluoro-1-methyl-1H-indol-3-yl)ethyl)pyrrolidin-2-yl)methanol] fall in the same range of EC50: 0.5 to 10 µM for the first, 0.5 to 10 µM for the second.

`CCn1cc(CCNCc2cccc(Cl)c2)c2c(O)cc(F)cc21` [31-11, 3-(2-(3-chlorobenzylamino)ethyl)-1-ethyl-6-fluoro-1H-indol-4-ol] and `CCn1cc(CCNCCc2cccc(C(F)(F)F)c2)c2c(O)cc(F)cc21` [26-10, 1-ethyl-6-fluoro-3-(2-(3-(trifluoromethyl)phenethylamino)ethyl)-1H-indol-4-ol] fall in the same range of EC50: 0.001 to 0.5 µM for the first, 0.001 to 0.5 µM for the second.

`CCn1cc(CCNCc2ccccc2C)c2c(OC)ccc(F)c21` [20-9, 2-(1-ethyl-7-fluoro-4-methoxy-1H-indol-3-yl)-N-(2-methylbenzyl)ethanamine] and `CCOc1c(F)ccc2c1c(CCNCc1cccc(C)c1)cn2C` [30-20, 2-(4-ethoxy-5-fluoro-1-methyl-1H-indol-3-yl)-N-(3-methylbenzyl)ethanamine] fall in the same range of EC50: 0.001 to 0.5 µM for the first, 0.001 to 0.5 µM for the second.

`CNCCc1cn(C)c2ccc(F)c(OCCc3ccc(Cl)cc3)c12` [33-29, 2-(4-(4-chlorophenethoxy)-5-fluoro-1-methyl-1H-indol-3-yl)-N-methylethanamine] and `CNCCc1cn(C)c2ccc(F)c(OCc3ccc(S(C)(=O)=O)cc3)c12` [33-38, 2-(5-fluoro-1-methyl-4-(4-(methylsulfonyl)benzyloxy)-1H-indol-3-yl)-N-methylethanamine] fall in the same range of EC50: 0.001 to 0.5 µM for the first, 0.001 to 0.5 µM for the second.

`CCOc1c(F)ccc2c1c(CCN1CCCC1)cn2C` [30-29, 4-ethoxy-5-fluoro-1-methyl-3-(2-(pyrrolidin-1-yl)ethyl)-1H-indole] and `COc1c(F)ccc2c1c(CCNc1cccc(N3CCN(C)CC3)c1)cn2C` [17-18, N-(2-(5-fluoro-4-methoxy-1-methyl-1H-indol-3-yl)ethyl)-3-(4-methylpiperazin-1-yl)aniline] fall in the same range of EC50: 0.001 to 0.5 µM for the first, 0.001 to 0.5 µM for the second.

First: COc1ccc(-c2ccc[nH]2)c2c1c(CCN(C)C)cn2C [6-10, 2-(4-methoxy-1-methyl-7-(1H-pyrrol-2-yl)-1H-indol-3-yl)-N,N-dimethylethanamine]
Second: COc1ccc(Nc2ccccc2)c2c1c(CCN(C)C)cn2C [6-12, 3-(2-dimethylaminoethyl)-4-methoxy-1-methyl-N-phenyl-1H-indol-7-amine]
The EC50 of the first is higher: 0.5 to 10 µM for the first, 0.001 to 0.5 µM for the second.

`COc1c(F)ccc2c1c(CCN[C@H]1CCCc3ccccc31)cn2C` [17-16, (S)-N-(2-(5-fluoro-4-methoxy-1-methyl-1H-indol-3-yl)ethyl)-1,2,3,4-tetrahydronaphthalen-1-amine] and `COc1c(F)ccc2c1c(CCN[C@@H]1CCCc3ccccc31)cn2C` [17-17, (R)-N-(2-(5-fluoro-4-methoxy-1-methyl-1H-indol-3-yl)ethyl)-1,2,3,4-tetrahydronaphthalen-1-amine] fall in the same range of EC50: 0.001 to 0.5 µM for the first, 0.001 to 0.5 µM for the second.

`COc1ccc(CNCCc2cn(C)c3ccc(F)c(OC)c23)cc1OC` [34-8, N-(3,4-dimethoxybenzyl)-2-(5-fluoro-4-methoxy-1-methyl-1H-indol-3-yl)ethanamine] and `CNCCc1cn(C)c2cc(F)cc(OCc3cccc(Cl)c3)c12` [33-46, 2-(4-(3-chlorobenzyloxy)-6-fluoro-1-methyl-1H-indol-3-yl)-N-methylethanamine] fall in the same range of EC50: 0.001 to 0.5 µM for the first, 0.001 to 0.5 µM for the second.

Compared with `CCn1cc(C2=CCNCC2)c2c(OCc3ccccc3)cc(F)cc21` [37-2, 4-(benzyloxy)-1-ethyl-6-fluoro-3-(1,2,3,6-tetrahydropyridin-4-yl)-1H-indole], `CCn1cc(CCN(C)C)c2c(OCc3ccc(OC)cc3)cc(F)cc21` [1-15b, 2-(1-ethyl-6-fluoro-4-(4-methoxybenzyloxy)-1H-indol-3-yl)-N,N-dimethylethanamine] is lower in EC50: 0.5 to 10 µM for the first, 0.001 to 0.5 µM for the second.

Compound `CCn1cc(CCN2Cc3ccccc3C2)c2c(O)cc(F)cc21` [31-4, 1-ethyl-6-fluoro-3-(2-(isoindolin-2-yl)ethyl)-1H-indol-4-ol] has an EC50 of 0.5 to 10 µM.
